Reference: ChEMBL document CHEMBL1201862, “PubChem BioAssay data set” (2004)
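Each compound was tested at five concentrations against cells in 96-well plates for 48 hours. GI50: concentration for 50% inhibition of growth.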 The source made the active and inactive calls. No stated cut-off is given here; in the data, active = GI50 up to about 1.1 µM and inactive = higher.

Assays:
Experiment in all cases: NCI anticancer screen, dose series, 48 h
[1] = tested on: SK-MEL-2
[2] = tested on: U-251
[3] = tested on: LOX IMVI
[4] = tested on: OVCAR-5
[5] = tested on: K562
[6] = tested on: SW-620
[7] = tested on: HT-29
[8] = tested on: SNB-19
[9] = tested on: NCI-H226
[10] = tested on: UACC-257
[11] = tested on: MOLT-4
[12] = tested on: A498
[13] = tested on: HL-60
[14] = tested on: HOP-62
[15] = tested on: Hs-578T
[16] = tested on: M14
[17] = tested on: DU-145
[18] = tested on: OVCAR-3
[19] = tested on: NCI-H460
[20] = tested on: BT-549

SMILES | GI50 [1] | GI50 [2] | GI50 [3] | GI50 [4] | GI50 [5] | GI50 [6] | GI50 [7] | GI50 [8] | GI50 [9] | GI50 [10] | GI50 [11] | GI50 [12] | GI50 [13] | GI50 [14] | GI50 [15] | GI50 [16] | GI50 [17] | GI50 [18] | GI50 [19] | GI50 [20]
O=C(Nc1cccc([N+](=O)[O-])c1)c1nnn(-c2cccc([N+](=O)[O-])c2)c1O | > 100 µM (inactive) | > 100 µM (inactive) | > 100 µM (inactive) | > 100 µM (inactive) | > 100 µM (inactive) | > 100 µM (inactive) | > 100 µM (inactive) | > 100 µM (inactive) | > 100 µM (inactive) | > 100 µM (inactive) | > 100 µM (inactive) | > 100 µM (inactive) | > 100 µM (inactive) | > 100 µM (inactive) | > 100 µM (inactive) | > 100 µM (inactive) | > 100 µM (inactive) | – | – | –
CC(=O)OC1COC(N2C(=O)C(=O)c3c(C)cc(Cl)nc32)C(OC(C)=O)C1OC(C)=O (stereo not given) | > 100 µM (inactive) | > 100 µM (inactive) | > 100 µM (inactive) | > 100 µM (inactive) | > 100 µM (inactive) | > 100 µM (inactive) | > 100 µM (inactive) | > 100 µM (inactive) | > 100 µM (inactive) | > 100 µM (inactive) | > 100 µM (inactive) | > 100 µM (inactive) | > 100 µM (inactive) | > 100 µM (inactive) | – | > 100 µM (inactive) | – | > 100 µM (inactive) | > 100 µM (inactive) | –
O=C1c2ccccc2-c2nc3ccc(O)cc3n21 | > 100 µM (inactive) | > 100 µM (inactive) | – | > 100 µM (inactive) | > 100 µM (inactive) | > 100 µM (inactive) | > 100 µM (inactive) | > 100 µM (inactive) | > 100 µM (inactive) | > 100 µM (inactive) | > 100 µM (inactive) | – | > 100 µM (inactive) | > 100 µM (inactive) | – | > 100 µM (inactive) | > 100 µM (inactive) | > 100 µM (inactive) | > 100 µM (inactive) | > 100 µM (inactive)
O=S(=O)(c1ccccc1)C1CN2OC1(S(=O)(=O)c1ccccc1)CC2c1ccc(Br)cc1 (stereo not given) | > 100 µM (inactive) | 54.2 µM (inactive) | 92 µM (inactive) | > 100 µM (inactive) | > 100 µM (inactive) | > 100 µM (inactive) | > 100 µM (inactive) | 46.8 µM (inactive) | > 100 µM (inactive) | 68.4 µM (inactive) | > 100 µM (inactive) | 96.4 µM (inactive) | > 100 µM (inactive) | 34.3 µM (inactive) | – | > 100 µM (inactive) | – | 84.7 µM (inactive) | > 100 µM (inactive) | –
C/C(=N\NS(=O)(=O)c1ccc([N+](=O)[O-])cc1)c1ccc[n+]([O-])n1 | 1.92 µM (inactive) | 1.86 µM (inactive) | 0.912 µM (active) | 2.63 µM (inactive) | 3.33 µM (inactive) | 2.29 µM (inactive) | 2.11 µM (inactive) | 3.24 µM (inactive) | 1.77 µM (inactive) | 3.8 µM (inactive) | 2.92 µM (inactive) | 1.98 µM (inactive) | 1.81 µM (inactive) | 2.09 µM (inactive) | – | 1.8 µM (inactive) | – | 2.23 µM (inactive) | 0.776 µM (active) | –
CCOC(=O)N/N=C(\Cc1ccccc1)OCC | > 100 µM (inactive) | > 100 µM (inactive) | > 100 µM (inactive) | > 100 µM (inactive) | > 100 µM (inactive) | > 100 µM (inactive) | > 100 µM (inactive) | > 100 µM (inactive) | – | > 100 µM (inactive) | > 100 µM (inactive) | – | – | > 100 µM (inactive) | – | > 100 µM (inactive) | > 100 µM (inactive) | > 100 µM (inactive) | – | > 100 µM (inactive)
CCOP(=O)(OCC)/C(=C\n1ccc(=O)[nH]c1=S)C(=O)OC | > 100 µM (inactive) | > 100 µM (inactive) | > 100 µM (inactive) | > 100 µM (inactive) | > 100 µM (inactive) | > 100 µM (inactive) | > 100 µM (inactive) | – | > 100 µM (inactive) | > 100 µM (inactive) | > 100 µM (inactive) | > 100 µM (inactive) | > 100 µM (inactive) | > 100 µM (inactive) | 66.2 µM (inactive) | > 100 µM (inactive) | > 100 µM (inactive) | – | > 100 µM (inactive) | –
c1ccc2c(c1)/C(=N\NC1=NCCN1)c1nc3ccccc3nc1-2 | – | 6.87 µM (inactive) | – | 6.64 µM (inactive) | 4.52 µM (inactive) | 1.36 µM (inactive) | 0.521 µM (active) | 6.44 µM (inactive) | 3.63 µM (inactive) | 5.31 µM (inactive) | 1.13 µM (inactive) | – | 3.83 µM (inactive) | 3.72 µM (inactive) | 16.6 µM (inactive) | 6.65 µM (inactive) | 10.6 µM (inactive) | 3.24 µM (inactive) | 2.44 µM (inactive) | 20.9 µM (inactive)
OCC(O)C(O)C(C=NNc1ncnc2ccc(Br)cc12)=NNc1ncnc2ccc(Br)cc12 (stereo not given) | 2.3 µM (inactive) | 1.75 µM (inactive) | 0.745 µM (active) | 3.58 µM (inactive) | 2.25 µM (inactive) | 0.809 µM (active) | 0.556 µM (active) | 2.17 µM (inactive) | 1.67 µM (inactive) | 3.1 µM (inactive) | 0.258 µM (active) | 4.23 µM (inactive) | 0.282 µM (active) | 2.64 µM (inactive) | 9.62 µM (inactive) | 1.62 µM (inactive) | 1.34 µM (inactive) | 0.339 µM (active) | – | –
CC(=O)Oc1cc(OC(C)=O)c2c(C)cc(=O)oc2c1 | > 100 µM (inactive) | > 100 µM (inactive) | > 100 µM (inactive) | > 100 µM (inactive) | > 100 µM (inactive) | > 100 µM (inactive) | > 100 µM (inactive) | > 100 µM (inactive) | > 100 µM (inactive) | > 100 µM (inactive) | > 100 µM (inactive) | 41 µM (inactive) | – | > 100 µM (inactive) | > 100 µM (inactive) | 87.3 µM (inactive) | > 100 µM (inactive) | > 100 µM (inactive) | – | –
CC(C)/C=C1\CCC(CN2CCOCC2)C1=O (stereo not given) | 17.7 µM (inactive) | > 42.4 µM (inactive) | 24.4 µM (inactive) | 22.5 µM (inactive) | 2.56 µM (inactive) | 2.7 µM (inactive) | 6.7 µM (inactive) | > 100 µM (inactive) | 30.5 µM (inactive) | 7.78 µM (inactive) | 2.99 µM (inactive) | > 35.9 µM (inactive) | 2.13 µM (inactive) | > 100 µM (inactive) | – | 11.9 µM (inactive) | – | 18.2 µM (inactive) | 28.1 µM (inactive) | –
C[C@@H](Br)[C@@H]1CC[C@H]2c3[nH]c4ccccc4c3CCN2C1 | 20.6 µM (inactive) | 21.5 µM (inactive) | 16.5 µM (inactive) | 34.4 µM (inactive) | 15.5 µM (inactive) | 21.8 µM (inactive) | 25 µM (inactive) | 20.1 µM (inactive) | 28.6 µM (inactive) | 27.4 µM (inactive) | 17.7 µM (inactive) | 31.2 µM (inactive) | 20 µM (inactive) | 18.6 µM (inactive) | 13.3 µM (inactive) | 19.8 µM (inactive) | 29.3 µM (inactive) | 15.6 µM (inactive) | 22.5 µM (inactive) | –
C[n+]1cn(-c2nc3ccccc3nc2[N-]S(=O)(=O)c2ccccc2)c2ccccc21 | > 100 µM (inactive) | > 100 µM (inactive) | > 100 µM (inactive) | > 100 µM (inactive) | > 100 µM (inactive) | > 100 µM (inactive) | > 100 µM (inactive) | > 100 µM (inactive) | > 100 µM (inactive) | > 100 µM (inactive) | > 100 µM (inactive) | – | > 100 µM (inactive) | > 100 µM (inactive) | > 100 µM (inactive) | > 100 µM (inactive) | – | > 100 µM (inactive) | > 100 µM (inactive) | > 100 µM (inactive)
CCOC(=O)c1c(SC(=O)c2cc(OC)c(OC)c(OC)c2)n(-c2ccccc2)c(=S)n(-c2ccccc2)c1=O | – | > 100 µM (inactive) | > 100 µM (inactive) | > 100 µM (inactive) | > 100 µM (inactive) | > 100 µM (inactive) | > 100 µM (inactive) | > 100 µM (inactive) | > 100 µM (inactive) | > 100 µM (inactive) | > 100 µM (inactive) | > 100 µM (inactive) | > 100 µM (inactive) | > 100 µM (inactive) | > 100 µM (inactive) | > 100 µM (inactive) | > 100 µM (inactive) | > 100 µM (inactive) | > 100 µM (inactive) | –
COC(=O)C1=C(CCC[C@H](C)O[Si](C)(C)C(C)(C)C)NC(=O)N2[C@@H](CCO)CC[C@H]12 | – | 15.5 µM (inactive) | 16.9 µM (inactive) | 19.4 µM (inactive) | 6.92 µM (inactive) | 20.1 µM (inactive) | 15.4 µM (inactive) | 15.2 µM (inactive) | 14.6 µM (inactive) | 11.8 µM (inactive) | 18.6 µM (inactive) | 16.6 µM (inactive) | – | 14.1 µM (inactive) | – | 16.3 µM (inactive) | 19.1 µM (inactive) | 13.3 µM (inactive) | 20.3 µM (inactive) | 15 µM (inactive)
O=C1C(Cl)C(c2ccc(O)cc2)N1n1cnc2ccccc2c1=O (stereo not given) | 26.9 µM (inactive) | 45.4 µM (inactive) | 21 µM (inactive) | > 79.8 µM (inactive) | 31.3 µM (inactive) | 22.5 µM (inactive) | 29.4 µM (inactive) | > 100 µM (inactive) | > 100 µM (inactive) | 43.6 µM (inactive) | 25.6 µM (inactive) | > 100 µM (inactive) | 24.5 µM (inactive) | > 100 µM (inactive) | – | 30.5 µM (inactive) | – | 32 µM (inactive) | 33.1 µM (inactive) | –
